# Biological target: T1, hPASK (Homo sapiens, UniProt Q96RG2)
# T1 construct: IC50 Kinase Domain; purchased Invitrogen
# Experiment: Biochemical assay for hPASK activity (PAS kinase FRET assay; IC50 kinase domain)
# Details: PASK kinase domain
# Protocol: Biochemical Assay for hPASK Activity
# One assay for purified hPASK activity utilizes the Kinase-Glo Luminescent Kinase Assay (Promega), which quantifies the amount of ATP remaining in solution following kinase reaction. The assay is carried out in a 96-well plate format and is performed by adding a volume of Kinase-Glo Reagent (Promega, catalog #V3771) equal to the volume of solution in the well of a completed kinase reaction. Kinase-Glo reagent contains Luciferase and its substrate. After addition to a kinase reaction it allows to measure luminescence. The amount of ATP left in solution at the time of Kinase-Glo Plus addition is directly proportional to the luminescence that is measured in each well, and inversely correlated with kinase activity.
# Purified hPASK from insect cells (0.02 μg) is added to a 50 μL reaction mix containing 40 mM HEPES (pH 7.0), 100 mM KCl, 5 mM MgCl2, 1 mM DTT and 1 μg of MBP protein. […] The luminescence is measured as soon as 10 minutes after Kinase-Glo reagent is added. […]
# The aim of the FRET assay is to determine the inhibition potential of test compounds on targeted kinase. This assay platform provides a homogenous screening method for measuring kinase activity by quantitating the amount of phospho-substrate in solution following a kinase reaction. […]
# T1 sequence (Q96RG2 999-1251 limits assumed): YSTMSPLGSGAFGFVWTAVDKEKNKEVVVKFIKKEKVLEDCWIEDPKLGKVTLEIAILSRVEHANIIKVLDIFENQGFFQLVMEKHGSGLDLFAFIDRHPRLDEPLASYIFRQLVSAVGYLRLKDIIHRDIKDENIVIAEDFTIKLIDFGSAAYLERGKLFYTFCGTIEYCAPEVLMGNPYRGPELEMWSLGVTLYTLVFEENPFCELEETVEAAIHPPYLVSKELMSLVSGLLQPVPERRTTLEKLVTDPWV
row,IC50 [µM],SMILES
1,≤ 10,"O=C(O)c1ccc2c(c1)cc(-c1ccc(F)cc1)n2-c1ccc(F)cc1 [Example 1, 1,2-Bis(4-fluorophenyl)-1H-indole-5-carboxylic acid]"
2,≤ 10,"O=C(O)/C=C/c1cnc(-c2ccc(F)cc2)c(-c2ccc(F)cc2)n1 [Example 2, (E)-3-(5,6-bis(4-fluorophenyl)pyrazin-2-yl)acrylic acid]"
